Tests used:
Test in all cases: isopeptidase assay, p-nitroaniline release, A405
Format in all cases: biochemical, Hirudo medicinalis
Conditions in all cases: pH 5.5, no NaCl (stated for activity), 37 °C
mlDL-Ds1 = test system: T1, mlDL-Ds1
T1 construct: gene Ds-1; ~16 kDa band printed for Ds3; monomer by gel filtration; synthetic codon-optimised gene
From the text: isopeptidase assay, p-nitroaniline release, A405 on mlDL-Ds1

mlDL-Ds3 = test system: T2, mlDL-Ds3
T2 construct: gene Ds-3; ~16 kDa; monomer by gel filtration; synthetic codon-optimised gene
From the text: isopeptidase assay, p-nitroaniline release, A405 on mlDL-Ds3

[1] = substrate: N[C@@H](CCC(=O)Nc1ccc([N+](=O)[O-])cc1)C(=O)O
From the text: isopeptidase assay, p-nitroaniline release, A405 on mlDL-Ds2

N[C@@H](CCC(=O)Nc1ccc([N+](=O)[O-])cc1)C(=O)O [L-γ-Glu-pNA]
Km (mlDL-Ds1): 40 µM | Km (mlDL-Ds3): 20 µM

B1: mlDL-Ds2 (Hirudo medicinalis) (protein)
chain: QFTDSCLRCICKVEGCDSQIGKCGMDVGSLSCGPYQIKKPYWIDCGKPGGGYESCTKNKACSETCVRAYMKRYGTFCTGGRTPTCQDYARIHNGGPRGCKSSATVGYWNKVQKCLR
notes: monomer by gel filtration; synthetic codon-optimised gene
Km [1]: 50 µM | kcat [1]: 0.08 s⁻¹
